Measurements from ChEMBL document CHEMBL1201862, “PubChem BioAssay data set” (2004).
Calls of active or inactive are those of the source.

What was measured:
[1] = target: T1, Acyl-homoserine lactone acylase PvdQ (Pseudomonas aeruginosa (strain LESB58), UniProt Q9I194); experiment: P. aeruginosa PvdQ acylase inhibitors, dose response, biochemical, fluorescence, plate reader and imaging, cherry-picks (AID 493231)
T1 sequence (Q9I194 whole entry): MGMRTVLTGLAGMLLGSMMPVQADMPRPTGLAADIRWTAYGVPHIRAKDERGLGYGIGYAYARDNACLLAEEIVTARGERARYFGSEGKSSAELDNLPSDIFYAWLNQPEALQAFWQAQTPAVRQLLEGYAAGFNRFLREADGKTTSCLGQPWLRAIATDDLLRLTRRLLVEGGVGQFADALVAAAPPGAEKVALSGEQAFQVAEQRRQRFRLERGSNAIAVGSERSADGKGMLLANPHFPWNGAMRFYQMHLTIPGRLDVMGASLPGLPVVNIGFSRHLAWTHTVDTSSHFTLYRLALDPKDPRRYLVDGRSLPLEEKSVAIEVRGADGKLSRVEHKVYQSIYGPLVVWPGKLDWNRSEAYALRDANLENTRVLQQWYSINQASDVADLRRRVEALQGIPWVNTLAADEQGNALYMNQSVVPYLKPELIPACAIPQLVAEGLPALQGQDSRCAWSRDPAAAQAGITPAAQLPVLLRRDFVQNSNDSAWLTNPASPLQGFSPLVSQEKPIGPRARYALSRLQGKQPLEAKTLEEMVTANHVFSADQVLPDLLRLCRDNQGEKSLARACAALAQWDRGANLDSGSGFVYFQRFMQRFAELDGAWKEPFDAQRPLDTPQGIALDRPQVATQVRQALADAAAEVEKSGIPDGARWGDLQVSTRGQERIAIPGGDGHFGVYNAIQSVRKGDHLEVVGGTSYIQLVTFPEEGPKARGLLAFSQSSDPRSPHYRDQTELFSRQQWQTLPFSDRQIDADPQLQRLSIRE

[2] = target: Melanin-concentrating hormone receptor 1 (Homo sapiens, UniProt Q99705); experiment: Late-stage fluorescence-based counterscreen for antagonists of the G-protein coupled receptor 7 (GPR7): cell-based dose response assay to identify antagonists of the melanin-concentrating hormone receptor 1 (MCHR1). [Related pubchem assays (depositor defined):AID1861, AID1880, AID1952, AID2148, AID2251, AID2257, AID485339]; format: functional;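 note: stimulated with 30 nM MCH peptide agonist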
Chain of Melanin-concentrating hormone receptor 1 (Q99705 whole entry): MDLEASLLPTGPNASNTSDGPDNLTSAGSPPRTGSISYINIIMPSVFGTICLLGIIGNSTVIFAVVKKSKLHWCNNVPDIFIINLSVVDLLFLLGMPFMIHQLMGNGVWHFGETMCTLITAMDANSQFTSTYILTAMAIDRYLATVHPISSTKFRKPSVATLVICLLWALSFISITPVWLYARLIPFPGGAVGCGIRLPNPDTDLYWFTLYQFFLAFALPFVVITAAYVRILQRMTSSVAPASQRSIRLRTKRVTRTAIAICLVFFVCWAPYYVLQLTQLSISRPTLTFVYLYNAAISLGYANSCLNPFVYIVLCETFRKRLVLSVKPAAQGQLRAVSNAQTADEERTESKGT

[3] = target: T2, Voltage-gated N-type calcium channel alpha-1B subunit/Amyloid beta A4 precursor protein-binding family A member 1 (Homo sapiens, UniProt Q00975+Q02410); experiment: disruptors of Mint-PDZ/N-type channel peptide interaction – biochemical, HTRF, SAR follow-up (AID 2489); format: functional
T2 sequence (Q00975 whole entry): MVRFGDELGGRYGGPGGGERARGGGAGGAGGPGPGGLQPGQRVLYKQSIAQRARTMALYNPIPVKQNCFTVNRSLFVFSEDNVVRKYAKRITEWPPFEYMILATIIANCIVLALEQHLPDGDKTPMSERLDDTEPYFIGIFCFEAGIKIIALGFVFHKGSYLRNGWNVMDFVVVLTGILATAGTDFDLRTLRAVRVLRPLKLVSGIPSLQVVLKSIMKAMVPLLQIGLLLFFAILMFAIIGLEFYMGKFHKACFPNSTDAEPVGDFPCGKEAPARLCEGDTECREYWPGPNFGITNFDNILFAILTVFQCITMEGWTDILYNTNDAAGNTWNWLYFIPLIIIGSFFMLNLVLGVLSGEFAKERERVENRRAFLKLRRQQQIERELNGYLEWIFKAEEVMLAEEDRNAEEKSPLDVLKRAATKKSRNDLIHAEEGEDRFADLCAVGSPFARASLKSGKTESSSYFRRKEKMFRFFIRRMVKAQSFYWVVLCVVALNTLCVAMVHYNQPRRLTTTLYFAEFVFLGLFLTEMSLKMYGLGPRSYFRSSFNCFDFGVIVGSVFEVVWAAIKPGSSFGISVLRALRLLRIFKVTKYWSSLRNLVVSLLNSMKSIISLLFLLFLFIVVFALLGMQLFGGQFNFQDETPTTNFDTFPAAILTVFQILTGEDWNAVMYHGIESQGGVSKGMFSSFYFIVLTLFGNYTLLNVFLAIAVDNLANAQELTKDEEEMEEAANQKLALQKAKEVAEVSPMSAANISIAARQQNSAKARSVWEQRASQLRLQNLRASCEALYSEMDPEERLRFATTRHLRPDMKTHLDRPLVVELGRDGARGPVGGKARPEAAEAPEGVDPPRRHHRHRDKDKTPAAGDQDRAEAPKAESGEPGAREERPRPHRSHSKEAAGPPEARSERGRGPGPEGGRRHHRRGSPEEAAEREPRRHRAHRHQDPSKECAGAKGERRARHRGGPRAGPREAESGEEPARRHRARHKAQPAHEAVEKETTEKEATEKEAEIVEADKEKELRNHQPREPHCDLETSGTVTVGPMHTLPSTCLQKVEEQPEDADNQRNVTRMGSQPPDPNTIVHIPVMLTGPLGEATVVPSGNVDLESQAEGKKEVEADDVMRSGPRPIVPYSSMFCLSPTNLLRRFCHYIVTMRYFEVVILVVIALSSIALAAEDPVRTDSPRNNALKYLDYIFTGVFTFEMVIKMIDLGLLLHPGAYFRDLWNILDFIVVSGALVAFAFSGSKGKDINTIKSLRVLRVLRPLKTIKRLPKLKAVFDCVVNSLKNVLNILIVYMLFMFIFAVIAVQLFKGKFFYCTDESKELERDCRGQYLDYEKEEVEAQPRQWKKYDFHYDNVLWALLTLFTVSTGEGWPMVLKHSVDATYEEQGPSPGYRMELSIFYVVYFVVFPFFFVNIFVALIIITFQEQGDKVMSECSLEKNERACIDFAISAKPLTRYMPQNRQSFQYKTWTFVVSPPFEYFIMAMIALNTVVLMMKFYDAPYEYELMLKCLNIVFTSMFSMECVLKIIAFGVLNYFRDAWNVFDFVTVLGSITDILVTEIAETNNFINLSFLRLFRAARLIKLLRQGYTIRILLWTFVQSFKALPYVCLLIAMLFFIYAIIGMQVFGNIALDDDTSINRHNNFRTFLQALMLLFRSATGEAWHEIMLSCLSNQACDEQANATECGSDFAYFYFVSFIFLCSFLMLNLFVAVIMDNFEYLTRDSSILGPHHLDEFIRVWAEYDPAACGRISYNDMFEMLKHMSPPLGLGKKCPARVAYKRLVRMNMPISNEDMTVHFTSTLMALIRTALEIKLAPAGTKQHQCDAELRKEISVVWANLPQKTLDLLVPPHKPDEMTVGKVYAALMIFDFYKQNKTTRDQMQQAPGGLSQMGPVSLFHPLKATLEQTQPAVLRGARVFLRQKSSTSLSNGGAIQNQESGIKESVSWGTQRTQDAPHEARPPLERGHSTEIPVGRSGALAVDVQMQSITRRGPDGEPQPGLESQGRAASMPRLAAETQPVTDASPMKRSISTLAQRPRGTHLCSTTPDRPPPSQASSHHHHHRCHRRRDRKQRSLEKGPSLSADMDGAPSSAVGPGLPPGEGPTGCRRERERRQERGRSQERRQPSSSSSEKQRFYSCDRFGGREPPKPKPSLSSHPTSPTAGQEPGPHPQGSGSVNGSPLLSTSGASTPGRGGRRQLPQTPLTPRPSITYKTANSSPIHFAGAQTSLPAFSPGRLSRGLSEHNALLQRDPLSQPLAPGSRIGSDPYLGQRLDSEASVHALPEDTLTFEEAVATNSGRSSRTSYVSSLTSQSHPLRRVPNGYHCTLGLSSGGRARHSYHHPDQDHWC
T2 sequence (Q02410 whole entry): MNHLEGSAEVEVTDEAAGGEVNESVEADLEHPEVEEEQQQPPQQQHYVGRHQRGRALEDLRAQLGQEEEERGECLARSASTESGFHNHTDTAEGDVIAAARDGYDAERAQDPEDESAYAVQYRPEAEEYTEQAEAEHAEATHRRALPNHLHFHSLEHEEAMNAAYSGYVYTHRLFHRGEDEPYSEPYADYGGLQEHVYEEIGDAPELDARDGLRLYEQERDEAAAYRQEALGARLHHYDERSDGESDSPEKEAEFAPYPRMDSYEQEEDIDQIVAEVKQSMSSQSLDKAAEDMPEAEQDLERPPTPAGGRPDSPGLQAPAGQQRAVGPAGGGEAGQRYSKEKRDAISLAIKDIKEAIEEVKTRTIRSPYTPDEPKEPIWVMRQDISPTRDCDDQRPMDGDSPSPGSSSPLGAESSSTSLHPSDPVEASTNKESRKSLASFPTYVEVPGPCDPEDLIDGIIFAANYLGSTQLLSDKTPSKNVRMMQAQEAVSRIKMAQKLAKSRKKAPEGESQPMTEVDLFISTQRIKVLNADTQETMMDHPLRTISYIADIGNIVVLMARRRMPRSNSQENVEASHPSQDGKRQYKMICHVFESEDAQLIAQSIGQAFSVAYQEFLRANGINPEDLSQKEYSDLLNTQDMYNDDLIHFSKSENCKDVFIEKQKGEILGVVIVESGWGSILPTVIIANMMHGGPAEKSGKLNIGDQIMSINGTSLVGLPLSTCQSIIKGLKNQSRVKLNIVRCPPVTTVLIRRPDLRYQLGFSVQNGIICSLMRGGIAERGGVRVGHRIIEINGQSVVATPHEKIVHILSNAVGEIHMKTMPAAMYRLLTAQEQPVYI

[4] = target: T2, Voltage-gated N-type calcium channel alpha-1B subunit/Amyloid beta A4 precursor protein-binding family A member 1; experiment: disruptors of Mint-PDZ/N-type channel peptide interaction – biochemical, HTRF, set 2, SAR follow-up (AID 434980); format: functional

O=C(NC1CCCCC1)c1cc(Cl)ccc1[N+](=O)[O-]
AC50 [1]: 69.3 µM (active)

Cc1cc(NC(=O)c2ccc([N+](=O)[O-])cc2Cl)no1
AC50 [1]: > 100 µM (inactive)

COc1ccc(Oc2c(Cl)cnn(-c3cccc(OC)c3)c2=O)cc1
IC50 [2]: 3.4 µM (active)

O=CN(c1ccccc1)c1ccc2ccccc2c1
AC50 [1]: 2.68 µM (active)

COc1ccc(Oc2c(C#N)cnn(-c3ccc(C(C)C)cc3)c2=O)cc1
IC50 [2]: 7.5 µM (active)

O=C(c1cc(-c2ccco2)nc2ccccc12)N1CCCC(c2ccccc2)C1 (configuration not stated)
IC50 [3]: > 56.8 µM (inactive) | IC50 [4]: > 56.8 µM (inactive)
